According to patent US20230085307A1, “PYRIDAZINONE COMPOUND AND HERBICIDE” (NISSAN CHEMICAL CORPORATION, priority 2019, published 2023):

What was measured:
persian speedwell [1] = experiment: Test Example 5: herbicidal effect by foliage application, plastic box (Table 20, symbol R); type: in vivo, Persian speedwell (Veronica persica); conditions: foliage application, 320 g/ha, evaluated three weeks after application
Procedure, shortened: (§1)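 Plants were sown into sterilized diluvial soil under about 1.5 cm cover and kept in a greenhouse at 25° C. to 30° C. Fourteen days on, foliage received an even spray of the diluted emulsion. Herbicidal or crop effect was judged three weeks afterwards.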

windgrass = experiment: Test Example 4: herbicidal effect by soil treatment (Table 19, symbol L); type: in vivo, windgrass (Apera spica-venti); conditions: amount of applied herbicide 320 g/ha
Procedure, shortened: (§2)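 Pre-emergence style soil spray: seeds under ~1.5 cm sterilized diluvial soil received a uniform coat of emulsion diluted to the predetermined herbicide amount. Greenhouse 25–30° C; readout at week three on previously defined criteria.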

rice flat sedge = experiment: Test Example 3: herbicidal effect by foliage application, Wagner pot (Table 18, symbol E); type: in vivo, rice flat sedge (Cyperus iria); conditions: for herbicidal effect on E: rice flat sedge: amount of applied herbicide 320 g/ha
Procedure, shortened: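 Plants were sown in alluvial soil held under 0.1–0.5 cm standing water and grown 14 days in a greenhouse at 25–30 °C. An emulsifiable formulation, water-diluted to the set dose, was then sprayed onto the foliage, and effects were scored three weeks later using previously defined criteria.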

redroot pigweed = experiment: Test Example 5: herbicidal effect by foliage application, plastic box (Table 20, symbol N); type: in vivo, redroot pigweed (Amaranthus retroflexus); conditions: foliage application, 320 g/ha, evaluated three weeks after application
Procedure, shortened: as §1

Italian ryegrass = experiment: Test Example 4: herbicidal effect by soil treatment (Table 19, symbol K); type: in vivo, Italian ryegrass (Lolium multiflorum); conditions: amount of applied herbicide 320 g/ha
Procedure, shortened: as §2

velvetleaf = experiment: Test Example 5: herbicidal effect by foliage application, plastic box (Table 20, symbol M); type: in vivo, velvetleaf (Abutilon theophrasti); conditions: foliage application, 320 g/ha, evaluated three weeks after application
Procedure, shortened: as §1

green foxtail = experiment: Test Example 5: herbicidal effect by foliage application, plastic box (Table 20, symbol G); type: in vivo, green foxtail (Setaria viridis); conditions: foliage application, 320 g/ha, evaluated three weeks after application
Procedure, shortened: as §1

oval-leafed pondweed [2] = experiment: Test Example 2: herbicidal activity, application during weed generation under submerged conditions (Table 17, symbol C); type: in vivo, oval-leafed pondweed (Monochoria vaginalis); conditions: AAH 320 g/ha; application during weed generation, submerged conditions
Procedure, shortened: (§3)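 Wagner pot, alluvial soil, 4 cm flood; mixed sowing of all species; greenhouse 25° C.–30° C. Emulsifiable formulation, water-diluted to predetermined dose, applied to paddy water at 1–2 leaf stage. Effect rated at 3 wk using the earlier test's scoring criteria.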

chickweed = experiment: Test Example 5: herbicidal effect by foliage application, plastic box (Table 20, symbol P); type: in vivo, common chickweed (Stellaria media); conditions: foliage application, 320 g/ha, evaluated three weeks after application
Procedure, shortened: as §1

Japanese bulrush = experiment: Test Example 2: herbicidal activity, application during weed generation under submerged conditions (Table 17, symbol B); type: in vivo, Japanese bulrush (Schoenoplectus juncoides); conditions: AAH 320 g/ha; application during weed generation, submerged conditions
Procedure, shortened: as §3

wild oat = experiment: Test Example 4: herbicidal effect by soil treatment (Table 19, symbol I); type: in vivo, wild oat (Avena fatua); conditions: amount of applied herbicide 320 g/ha
Procedure, shortened: as §2

barnyard grass = experiment: Test Example 5: herbicidal effect by foliage application, plastic box (Table 20, symbol H); type: in vivo, barnyard grass (Echinochloa crus-galli); conditions: foliage application, 320 g/ha, evaluated three weeks after application
Procedure, shortened: as §1

oval-leafed pondweed [3] = experiment: Test Example 1: herbicidal activity, application before weed generation under submerged conditions (Table 16, symbol C); type: in vivo, oval-leafed pondweed (Monochoria vaginalis); conditions: 320 g/ha applied herbicide
Procedure, shortened: (§4)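 Emulsion formulation, water-diluted to set dose, was put onto the flooded surface (4 cm depth, alluvial soil) the same day weeds were sown and 2.5-leaf rice transplanted. After 3 weeks at 25-30 °C under glass, each species was rated 0 (≤5% kill) to 5 (≥90% kill).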

late watergrass = experiment: Test Example 1: herbicidal activity, application before weed generation under submerged conditions (Table 16, symbol A); type: in vivo, late watergrass (Echinochloa oryzicola); conditions: 320 g/ha applied herbicide
Procedure, shortened: as §4

persian speedwell [4] = experiment: Test Example 4: herbicidal effect by soil treatment (Table 19, symbol R); type: in vivo, Persian speedwell (Veronica persica); conditions: amount of applied herbicide 320 g/ha
Procedure, shortened: as §2

southern crabgrass = experiment: Test Example 5: herbicidal effect by foliage application, plastic box (Table 20, symbol F); type: in vivo, southern crabgrass (Digitaria ciliaris); conditions: foliage application, 320 g/ha, evaluated three weeks after application
Procedure, shortened: as §1

| Compound | herbicidal effect on R: persian speedwell (persian speedwell [1]) | L: windgrass, herbicidal effect rating (windgrass) | herbicidal effect on N: redroot pigweed (redroot pigweed) | K: Italian ryegrass, herbicidal effect rating (Italian ryegrass) | herbicidal effect on M: velvetleaf (velvetleaf) | herbicidal effect on G: green foxtail (green foxtail) | herbicidal effect rating, C: oval-leafed pondweed (oval-leafed pondweed [2]) | herbicidal effect on P: chickweed (chickweed) | herbicidal effect rating, B: Japanese bulrush (Japanese bulrush) | I: wild oat, herbicidal effect rating (wild oat) | herbicidal effect on H: barnyard grass (barnyard grass) | Herbicidal effect on C: oval-leafed pondweed (grade 0-5) (oval-leafed pondweed [3]) | Herbicidal effect on A: late watergrass (grade 0-5) (late watergrass) | R: persian speedwell, herbicidal effect rating (persian speedwell [4]) | herbicidal effect on F: southern crabgrass (southern crabgrass) | herbicidal effect on E: rice flat sedge (rice flat sedge) | herbicidal effect on R: persian speedwell (criteria 0-5) (persian speedwell [1]) | herbicidal effect on N: redroot pigweed (criteria 0-5) (redroot pigweed) | herbicidal effect on M: velvetleaf (criteria 0-5) (velvetleaf) | herbicidal effect on G: green foxtail (criteria 0-5) (green foxtail) | further results |
| --- | --- | --- | --- | --- | --- | --- | --- | --- | --- | --- | --- | --- | --- | --- | --- | --- | --- | --- | --- | --- | --- |
| COc1ccccc1-c1sc2ccc(Cl)cc2c1-c1c(O)c(C)nn(C)c1=O [2-101] | 5 (Herbicidal rate of 90% or more (almost completely withered)) | 0 (Herbicidal rate of 5% or less (almost no effect)) | 5 (Herbicidal rate of 90% or more (almost completely withered)) | 3 (Herbicidal rate of 40% or more and less than 70%) | 5 (Herbicidal rate of 90% or more (almost completely withered)) | 3 (Herbicidal rate of 40% or more and less than 70%) | 5 (Herbicidal rate of 90% or more (almost completely withered)) | 5 (Herbicidal rate of 90% or more (almost completely withered)) | 3 (Herbicidal rate of 40% or more and less than 70%) | 0 (Herbicidal rate of 5% or less (almost no effect)) | 3 (Herbicidal rate of 40% or more and less than 70%) | 3 (Herbicidal rate of 40% or more and less than 70%) | 0 (Herbicidal rate of 5% or less (almost no effect)) | 4 (Herbicidal rate of 70% or more and less than 90%) | 2 (Herbicidal rate of 20% or more and less than 40%) | – | – | – | – | – | herbicidal effect on E (rice flat sedge), rating 0-5 (rice flat sedge; 320 g/ha): 5 (Herbicidal rate of 90% or more (almost completely withered)) |
| Cc1nn(C)c(=O)c(-c2c(-c3ccc(C#N)cc3)sc3ccc(Cl)cc23)c1O [2-112] | 5 (Herbicidal rate of 90% or more (almost completely withered)) | 5 (Herbicidal rate of 90% or more (almost completely withered)) | 5 (Herbicidal rate of 90% or more (almost completely withered)) | 5 (Herbicidal rate of 90% or more (almost completely withered)) | 4 (Herbicidal rate of 70% or more and less than 90%) | 4 (Herbicidal rate of 70% or more and less than 90%) | 0 (Herbicidal rate of 5% or less (almost no effect)) | 5 (Herbicidal rate of 90% or more (almost completely withered)) | 0 (Herbicidal rate of 5% or less (almost no effect)) | 0 (Herbicidal rate of 5% or less (almost no effect)) | 4 (Herbicidal rate of 70% or more and less than 90%) | 0 (Herbicidal rate of 5% or less (almost no effect)) | 0 (Herbicidal rate of 5% or less (almost no effect)) | 5 (Herbicidal rate of 90% or more (almost completely withered)) | 4 (Herbicidal rate of 70% or more and less than 90%) | 5 (Herbicidal rate of 90% or more (almost completely withered)) | – | – | – | – | – |
| CCCC(=O)Oc1c(C)nn(C)c(=O)c1-c1c(-c2cccc(F)c2)sc2ccc(F)cc12 [2-202] | – | 0 (Herbicidal rate of 5% or less (almost no effect)) | – | 1 (Herbicidal rate of 5% or more and less than 20%) | – | – | 4 (Herbicidal rate of 70% or more and less than 90%) | – | 3 (Herbicidal rate of 40% or more and less than 70%) | 0 (Herbicidal rate of 5% or less (almost no effect)) | – | 0 (Herbicidal rate of 5% or less (almost no effect)) | 3 (Herbicidal rate of 40% or more and less than 70%) | 4 (Herbicidal rate of 70% or more and less than 90%) | – | 5 (Herbicidal rate of 90% or more (almost completely withered)) | 4 (Herbicidal rate of 70% or more and less than 90%) | 5 (Herbicidal rate of 90% or more (almost completely withered)) | 5 (Herbicidal rate of 90% or more (almost completely withered)) | 4 (Herbicidal rate of 70% or more and less than 90%) | herbicidal effect on P: chickweed (criteria 0-5) (chickweed): 5 (Herbicidal rate of 90% or more (almost completely withered)); herbicidal effect on H: barnyard grass (criteria 0-5) (barnyard grass): 4 (Herbicidal rate of 70% or more and less than 90%); herbicidal effect on F: southern crabgrass (criteria 0-5) (southern crabgrass): 3 (Herbicidal rate of 40% or more and less than 70%) |
| Cc1nn(C)c(=O)c(-c2c(-c3cccc(OC(C)C)c3)sc3ccc(F)cc23)c1O [2-215] | – | 0 (Herbicidal rate of 5% or less (almost no effect)) | – | 3 (Herbicidal rate of 40% or more and less than 70%) | – | – | 0 (Herbicidal rate of 5% or less (almost no effect)) | – | 0 (Herbicidal rate of 5% or less (almost no effect)) | 0 (Herbicidal rate of 5% or less (almost no effect)) | – | 0 (Herbicidal rate of 5% or less (almost no effect)) | 3 (Herbicidal rate of 40% or more and less than 70%) | 4 (Herbicidal rate of 70% or more and less than 90%) | – | 4 (Herbicidal rate of 70% or more and less than 90%) | 5 (Herbicidal rate of 90% or more (almost completely withered)) | 5 (Herbicidal rate of 90% or more (almost completely withered)) | 3 (Herbicidal rate of 40% or more and less than 70%) | 5 (Herbicidal rate of 90% or more (almost completely withered)) | herbicidal effect on P: chickweed (criteria 0-5) (chickweed): 5 (Herbicidal rate of 90% or more (almost completely withered)); herbicidal effect on H: barnyard grass (criteria 0-5) (barnyard grass): 5 (Herbicidal rate of 90% or more (almost completely withered)); herbicidal effect on F: southern crabgrass (criteria 0-5) (southern crabgrass): 5 (Herbicidal rate of 90% or more (almost completely withered)) |
